{
  "source": "patent US9695155B2",
  "about": "“Herbicidal substituted pyrimidinyloxy benzene compounds” (E. I. DU PONT DE NEMOURS AND COMPANY, priority 2013, dated 2017)",
  "assay_in_all_cases": "Test C preemergence",
  "key": {"pigweed": {"tested_on": "pigweed", "type": "in vivo, Amaranthus retroflexus", "conditions": "Amaranthus retroflexus, pre-emergence", "method_in_brief": "(§1)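 Whole-plant greenhouse test with surfactant-containing solvent formulation, applied preemergence to sown loam–sand pots or postemergence to 2–18 cm plants. Scored by eye 13 to 15 days on, 0–100 scale.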"}, "waterhemp": {"tested_on": "waterhemp", "type": "in vivo, Amaranthus rudis", "conditions": "Amaranthus tuberculatus, pre-emergence", "method_in_brief": "as §1"}, "large (Lg) crabgrass": {"tested_on": "large (Lg) crabgrass", "type": "in vivo, Digitaria sanguinalis", "conditions": "Digitaria sanguinalis, pre-emergence", "method_in_brief": "as §1"}, "giant foxtail": {"tested_on": "giant foxtail", "type": "in vivo, Setaria faberii", "conditions": "Setaria faberi, pre-emergence", "method_in_brief": "as §1"}, "corn": {"tested_on": "corn", "type": "in vivo, Zea mays", "conditions": "Zea mays, pre-emergence", "method_in_brief": "as §1"}, "lambsquarters": {"tested_on": "lambsquarters", "type": "in vivo, Chenopodium album", "conditions": "Chenopodium album, pre-emergence", "method_in_brief": "as §1"}, "wheat, winter": {"tested_on": "wheat, winter", "type": "in vivo, Triticum aestivum", "conditions": "Triticum aestivum, pre-emergence", "method_in_brief": "as §1"}, "galium": {"tested_on": "galium", "type": "in vivo, Galium aparine", "conditions": "Galium, pre-emergence", "method_in_brief": "as §1"}, "velvetleaf": {"tested_on": "velvetleaf", "type": "in vivo, Abutilon theophrasti", "conditions": "Abutilon theophrasti, pre-emergence", "method_in_brief": "as §1"}},
  "data": [
    {"smiles": "N#Cc1cccc(Oc2ncc(Cl)cn2)c1-n1cc(OCC(F)(F)F)cn1", "note": "[Compound 274, 3-[(5-chloro-2-pyrimidinyl)oxy]-2-[4-(2,2,2-trifluoroethoxy)-1H-pyrazol-1-yl]benzonitrile]", "values": [
      {"measurement": "pest or weed control at 16 g/ha", "setting": "pigweed; 16 g ai/ha, preemergence, scale 0 to 100 (0 no effect, 100 complete control), read-out: Pigweed plant response rating", "value": 100, "unit": "%"},
      {"measurement": "pest or weed control at 125 g/ha", "setting": "pigweed; 125 g ai/ha, preemergence, scale 0 (no effect) to 100 (complete control), read-out: Pigweed plant response rating", "value": 100, "unit": "%"},
      {"measurement": "pest or weed control at 62 g/ha", "setting": "pigweed; Preemergence, 62 g ai/ha, scale 0 to 100, 0 no effect, 100 complete control, read-out: Plant response rating, Pigweed", "value": 100, "unit": "%"},
      {"measurement": "pest or weed control at 16 g/ha", "setting": "waterhemp; 16 g ai/ha, preemergence, scale 0 to 100 (0 no effect, 100 complete control), read-out: Waterhemp plant response rating", "value": 100, "unit": "%"},
      {"measurement": "pest or weed control at 125 g/ha", "setting": "waterhemp; 125 g ai/ha, preemergence, scale 0 (no effect) to 100 (complete control), read-out: Waterhemp plant response rating", "value": 100, "unit": "%"},
      {"measurement": "pest or weed control at 62 g/ha", "setting": "waterhemp; Preemergence, 62 g ai/ha, scale 0 to 100, 0 no effect, 100 complete control, read-out: Plant response rating, Waterhemp", "value": 100, "unit": "%"},
      {"measurement": "pest or weed control at 16 g/ha", "setting": "large (Lg) crabgrass; 16 g ai/ha, preemergence, scale 0 to 100 (0 no effect, 100 complete control), read-out: Crabgrass, Large plant response rating", "value": 100, "unit": "%"},
      {"measurement": "pest or weed control at 125 g/ha", "setting": "large (Lg) crabgrass; 125 g ai/ha, preemergence, scale 0 (no effect) to 100 (complete control), read-out: Crabgrass, Large plant response rating", "value": 100, "unit": "%"},
      {"measurement": "pest or weed control at 62 g/ha", "setting": "large (Lg) crabgrass; Preemergence, 62 g ai/ha, scale 0 to 100, 0 no effect, 100 complete control, read-out: Plant response rating, Crabgrass, Large", "value": 100, "unit": "%"},
      {"measurement": "pest or weed control at 16 g/ha", "setting": "giant foxtail; 16 g ai/ha, preemergence, scale 0 to 100 (0 no effect, 100 complete control), read-out: Foxtail, Giant plant response rating", "value": 98, "unit": "%"},
      {"measurement": "pest or weed control at 125 g/ha", "setting": "giant foxtail; 125 g ai/ha, preemergence, scale 0 (no effect) to 100 (complete control), read-out: Foxtail, Giant plant response rating", "value": 100, "unit": "%"},
      {"measurement": "pest or weed control at 62 g/ha", "setting": "giant foxtail; Preemergence, 62 g ai/ha, scale 0 to 100, 0 no effect, 100 complete control, read-out: Plant response rating, Foxtail, Giant", "value": 100, "unit": "%"},
      {"measurement": "plant injury at 16 g/ha", "setting": "corn; 16 g ai/ha, preemergence, scale 0 to 100 (0 no effect, 100 complete control), read-out: Corn plant response rating", "value": 5, "unit": "%"},
      {"measurement": "plant injury at 125 g/ha", "setting": "corn; 125 g ai/ha, preemergence, scale 0 (no effect) to 100 (complete control), read-out: Corn plant response rating", "value": 80, "unit": "%"},
      {"measurement": "Corn plant response rating (crop injury, 0 = no effect, 100 = complete kill) at 62 g/ha", "setting": "corn; Preemergence, 62 g ai/ha, scale 0 to 100, 0 no effect, 100 complete control", "value": 85, "unit": "%"},
      {"measurement": "pest or weed control at 16 g/ha", "setting": "lambsquarters; 16 g ai/ha, preemergence, scale 0 to 100 (0 no effect, 100 complete control), read-out: Lambsquarters plant response rating", "value": 100, "unit": "%"},
      {"measurement": "pest or weed control at 125 g/ha", "setting": "lambsquarters; 125 g ai/ha, preemergence, scale 0 (no effect) to 100 (complete control), read-out: Lambsquarters plant response rating", "value": 98, "unit": "%"},
      {"measurement": "pest or weed control at 62 g/ha", "setting": "lambsquarters; Preemergence, 62 g ai/ha, scale 0 to 100, 0 no effect, 100 complete control, read-out: Plant response rating, Lambsquarters", "value": 100, "unit": "%"},
      {"measurement": "plant injury at 16 g/ha", "setting": "wheat, winter; 16 g ai/ha, preemergence, scale 0 to 100 (0 no effect, 100 complete control), read-out: Wheat plant response rating", "value": 20, "unit": "%"},
      {"measurement": "plant injury at 125 g/ha", "setting": "wheat, winter; 125 g ai/ha, preemergence, scale 0 (no effect) to 100 (complete control), read-out: Wheat plant response rating", "value": 90, "unit": "%"},
      {"measurement": "plant injury at 62 g/ha", "setting": "wheat, winter; Preemergence, 62 g ai/ha, scale 0 to 100, 0 no effect, 100 complete control, read-out: Plant response rating, Wheat", "value": 90, "unit": "%"},
      {"measurement": "pest or weed control at 16 g/ha", "setting": "galium; 16 g ai/ha, preemergence, scale 0 to 100 (0 no effect, 100 complete control), read-out: Galium plant response rating", "value": 90, "unit": "%"},
      {"measurement": "pest or weed control at 125 g/ha", "setting": "galium; 125 g ai/ha, preemergence, scale 0 (no effect) to 100 (complete control), read-out: Galium plant response rating", "value": 98, "unit": "%"},
      {"measurement": "pest or weed control at 62 g/ha", "setting": "galium; Preemergence, 62 g ai/ha, scale 0 to 100, 0 no effect, 100 complete control, read-out: Plant response rating, Galium", "value": 98, "unit": "%"},
      {"measurement": "pest or weed control at 16 g/ha", "setting": "velvetleaf; 16 g ai/ha, preemergence, scale 0 to 100 (0 no effect, 100 complete control), read-out: Velvetleaf plant response rating", "value": 80, "unit": "%"},
      {"measurement": "pest or weed control at 125 g/ha", "setting": "velvetleaf; 125 g ai/ha, preemergence, scale 0 (no effect) to 100 (complete control), read-out: Velvetleaf plant response rating", "value": 100, "unit": "%"},
      {"measurement": "pest or weed control at 62 g/ha", "setting": "velvetleaf; Preemergence, 62 g ai/ha, scale 0 to 100, 0 no effect, 100 complete control, read-out: Plant response rating, Velvetleaf", "value": 100, "unit": "%"}
    ]}
  ]
}
